Reference: US8192962B2, “Processes for detecting toxic substances” (Daikin Industries, Ltd., priority 2001, dated 2012)

System: Unknown protein yeast genes
Test: DNA chip mRNA expression in yeast, unknown protein yeast genes (Table 1)
Type: cell-based, Saccharomyces cerevisiae S288C
In short: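 First, S288C yeast grown in YPD at 25° C. are dosed in log phase with one toxicant (growth-inhibiting, not lethal) for 2 h. Next, total RNA is extracted and poly(A) mRNA isolated and reverse-transcribed with Cy3/Cy5-dUTP. Finally, whole-genome chip fluorescence is read relative to unexposed cells.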

`COc1cc(CNC(=O)CCCCC=CC(C)C)ccc1O` [(12), 8-methyl-N-vanillyl-6-nonenamide] was tested, and the “The level of expressed mRNA in the presence of chemical substance/The level of expressed mRNA in the absence of chemical substance” value (yeast gene YAL053W, incubated two hours with chemical substance) was 0.6, the “The level of expressed mRNA in the presence of chemical substance/The level of expressed mRNA in the absence of chemical substance” value (yeast gene YBL048W) was 1.2 and the “The level of expressed mRNA in the presence of chemical substance/The level of expressed mRNA in the absence of chemical substance” value (yeast gene YBL107C) was 1.4. The “The level of expressed mRNA in the presence of chemical substance/The level of expressed mRNA in the absence of chemical substance” value (yeast gene YCR043C) was 0.6, the “The level of expressed mRNA in the presence of chemical substance/The level of expressed mRNA in the absence of chemical substance” value (yeast gene YCR102C) was 0.5 and the “The level of expressed mRNA in the presence of chemical substance/The level of expressed mRNA in the absence of chemical substance” value (yeast gene YDL072C, incubated two hours with chemical substance) was 1.2. The “The level of expressed mRNA in the presence of chemical substance/The level of expressed mRNA in the absence of chemical substance” value (yeast gene YDL204W, incubated two hours with chemical substance) was 0.9, the “The level of expressed mRNA in the presence of chemical substance/The level of expressed mRNA in the absence of chemical substance” value (yeast gene YDL222C, incubated two hours with chemical substance) was 1.0 and the “The level of expressed mRNA in the presence of chemical substance/The level of expressed mRNA in the absence of chemical substance” value (yeast gene YDR330W, incubated two hours with chemical substance) was 1.0. The “The level of expressed mRNA in the presence of chemical substance/The level of expressed mRNA in the absence of chemical substance” value (yeast gene YDR411C, incubated two hours with chemical substance) was 1.5, the “The level of expressed mRNA in the presence of chemical substance/The level of expressed mRNA in the absence of chemical substance” value (yeast gene YDR511W, incubated two hours with chemical substance) was 0.8 and the “The level of expressed mRNA in the presence of chemical substance/The level of expressed mRNA in the absence of chemical substance” value (yeast gene YDR545W, incubated two hours with chemical substance) was 0.9. For the same compound, the “The level of expressed mRNA in the presence of chemical substance/The level of expressed mRNA in the absence of chemical substance” value (yeast gene YEL001C, incubated two hours with chemical substance) was 1.1, the “The level of expressed mRNA in the presence of chemical substance/The level of expressed mRNA in the absence of chemical substance” value (yeast gene YER004W, incubated two hours with chemical substance) was 1.7 and the “The level of expressed mRNA in the presence of chemical substance/The level of expressed mRNA in the absence of chemical substance” value (yeast gene YER035W, incubated two hours with chemical substance) was 1.1. For the same compound, the “The level of expressed mRNA in the presence of chemical substance/The level of expressed mRNA in the absence of chemical substance” value (yeast gene YER079W, incubated two hours with chemical substance) was 0.9, the “The level of expressed mRNA in the presence of chemical substance/The level of expressed mRNA in the absence of chemical substance” value (yeast gene YER106W, incubated two hours with chemical substance) was 0.9 and the “The level of expressed mRNA in the presence of chemical substance/The level of expressed mRNA in the absence of chemical substance” value (yeast gene YER158C, incubated two hours with chemical substance) was 1.0. The “The level of expressed mRNA in the presence of chemical substance/The level of expressed mRNA in the absence of chemical substance” value (yeast gene YER163C, incubated two hours with chemical substance) was 1.0, the “The level of expressed mRNA in the presence of chemical substance/The level of expressed mRNA in the absence of chemical substance” value (yeast gene YER175C, incubated two hours with chemical substance) was 0.9 and the “The level of expressed mRNA in the presence of chemical substance/The level of expressed mRNA in the absence of chemical substance” value (yeast gene YFL006W, incubated two hours with chemical substance) was 1.2. The “The level of expressed mRNA in the presence of chemical substance/The level of expressed mRNA in the absence of chemical substance” value (yeast gene YFL010C, incubated two hours with chemical substance) was 1.5, the “The level of expressed mRNA in the presence of chemical substance/The level of expressed mRNA in the absence of chemical substance” value (yeast gene YFL024C) was 0.8 and the “The level of expressed mRNA in the presence of chemical substance/The level of expressed mRNA in the absence of chemical substance” value (yeast gene YFL032W, incubated two hours with chemical substance) was 0.7. The “The level of expressed mRNA in the presence of chemical substance/The level of expressed mRNA in the absence of chemical substance” value (yeast gene YGL037C, incubated two hours with chemical substance) was 0.8, the “The level of expressed mRNA in the presence of chemical substance/The level of expressed mRNA in the absence of chemical substance” value (yeast gene YGL047W, incubated two hours with chemical substance) was 1.1 and the “The level of expressed mRNA in the presence of chemical substance/The level of expressed mRNA in the absence of chemical substance” value (yeast gene YGL053W, incubated two hours with chemical substance) was 1.3. For the same compound, the “The level of expressed mRNA in the presence of chemical substance/The level of expressed mRNA in the absence of chemical substance” value (yeast gene YGL121C) was 1.6, the “The level of expressed mRNA in the presence of chemical substance/The level of expressed mRNA in the absence of chemical substance” value (yeast gene YGL199C, incubated two hours with chemical substance) was 0.9 and the “The level of expressed mRNA in the presence of chemical substance/The level of expressed mRNA in the absence of chemical substance” value (yeast gene YGR101W, incubated two hours with chemical substance) was 1.0. The “The level of expressed mRNA in the presence of chemical substance/The level of expressed mRNA in the absence of chemical substance” value (yeast gene YGR110W) was 1.4, the “The level of expressed mRNA in the presence of chemical substance/The level of expressed mRNA in the absence of chemical substance” value (yeast gene YGR130C, incubated two hours with chemical substance) was 0.7 and the “The level of expressed mRNA in the presence of chemical substance/The level of expressed mRNA in the absence of chemical substance” value (yeast gene YGR154C, incubated two hours with chemical substance) was 0.9. The “The level of expressed mRNA in the presence of chemical substance/The level of expressed mRNA in the absence of chemical substance” value (yeast gene YGR221C, incubated two hours with chemical substance) was 1.6, the “The level of expressed mRNA in the presence of chemical substance/The level of expressed mRNA in the absence of chemical substance” value (yeast gene YHL042W) was 0.6 and the “The level of expressed mRNA in the presence of chemical substance/The level of expressed mRNA in the absence of chemical substance” value (yeast gene YHR138C, incubated two hours with chemical substance) was 1.8. The “The level of expressed mRNA in the presence of chemical substance/The level of expressed mRNA in the absence of chemical substance” value (yeast gene YHR199C, incubated two hours with chemical substance) was 1.1, the “The level of expressed mRNA in the presence of chemical substance/The level of expressed mRNA in the absence of chemical substance” value (yeast gene YIL012W) was 0.6 and the “The level of expressed mRNA in the presence of chemical substance/The level of expressed mRNA in the absence of chemical substance” value (yeast gene YIL023C, incubated two hours with chemical substance) was 0.9. The “The level of expressed mRNA in the presence of chemical substance/The level of expressed mRNA in the absence of chemical substance” value (yeast gene YIL041W, incubated two hours with chemical substance) was 1.0, the “The level of expressed mRNA in the presence of chemical substance/The level of expressed mRNA in the absence of chemical substance” value (yeast gene YIL057C) was 0.6 and the “The level of expressed mRNA in the presence of chemical substance/The level of expressed mRNA in the absence of chemical substance” value (yeast gene YIL087C, incubated two hours with chemical substance) was 1.1. The “The level of expressed mRNA in the presence of chemical substance/The level of expressed mRNA in the absence of chemical substance” value (yeast gene YIL089W) was 0.6, the “The level of expressed mRNA in the presence of chemical substance/The level of expressed mRNA in the absence of chemical substance” value (yeast gene YIL102C) was 0.6 and the “The level of expressed mRNA in the presence of chemical substance/The level of expressed mRNA in the absence of chemical substance” value (yeast gene YJL057C, incubated two hours with chemical substance) was 1.0. The “The level of expressed mRNA in the presence of chemical substance/The level of expressed mRNA in the absence of chemical substance” value (yeast gene YJL066C, incubated two hours with chemical substance) was 1.0, the “The level of expressed mRNA in the presence of chemical substance/The level of expressed mRNA in the absence of chemical substance” value (yeast gene YJL082W, incubated two hours with chemical substance) was 1.3 and the “The level of expressed mRNA in the presence of chemical substance/The level of expressed mRNA in the absence of chemical substance” value (yeast gene YJL151C, incubated two hours with chemical substance) was 1.3. The “The level of expressed mRNA in the presence of chemical substance/The level of expressed mRNA in the absence of chemical substance” value (yeast gene YJL152W, incubated two hours with chemical substance) was 1.0, the “The level of expressed mRNA in the presence of chemical substance/The level of expressed mRNA in the absence of chemical substance” value (yeast gene YJL161W, incubated two hours with chemical substance) was 1.0 and the “The level of expressed mRNA in the presence of chemical substance/The level of expressed mRNA in the absence of chemical substance” value (yeast gene YJL171C, incubated two hours with chemical substance) was 1.0. For the same compound, the “The level of expressed mRNA in the presence of chemical substance/The level of expressed mRNA in the absence of chemical substance” value (yeast gene YJR008W, incubated two hours with chemical substance) was 1.3, the “The level of expressed mRNA in the presence of chemical substance/The level of expressed mRNA in the absence of chemical substance” value (yeast gene YJR054W, incubated two hours with chemical substance) was 0.9 and the “The level of expressed mRNA in the presence of chemical substance/The level of expressed mRNA in the absence of chemical substance” value (yeast gene YKL071W) was 1.0.
